Literature values as cited in patent US20120288450A1, “Chewing gum formula for enhancing psycho-spirituality” (priority 2009, published 2012).
“Also recorded” adds a separate entry of the source.

Experiments:
[1] = in vivo
[2] = in vivo; remark: listed apart in the source
[3] = target: T1, Monoamine Oxidase Type-B (MAO-B) (Homo sapiens, UniProt P27338)
T1 sequence (P27338 1-520): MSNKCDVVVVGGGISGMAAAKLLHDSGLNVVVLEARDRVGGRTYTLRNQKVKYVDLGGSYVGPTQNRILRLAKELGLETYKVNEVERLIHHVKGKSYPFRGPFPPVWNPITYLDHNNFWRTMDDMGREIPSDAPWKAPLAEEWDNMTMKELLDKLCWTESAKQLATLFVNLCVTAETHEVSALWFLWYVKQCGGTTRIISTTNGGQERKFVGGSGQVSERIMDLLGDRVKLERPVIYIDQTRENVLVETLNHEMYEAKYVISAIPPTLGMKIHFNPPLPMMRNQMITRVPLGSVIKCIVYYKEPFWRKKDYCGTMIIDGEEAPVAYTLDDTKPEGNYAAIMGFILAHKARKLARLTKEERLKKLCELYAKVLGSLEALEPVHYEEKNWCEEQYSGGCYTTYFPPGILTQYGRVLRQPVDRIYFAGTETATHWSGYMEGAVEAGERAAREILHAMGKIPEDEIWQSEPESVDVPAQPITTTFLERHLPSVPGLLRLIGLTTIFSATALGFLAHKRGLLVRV

[4] = moisture, light, and radiation
[5] = in vivo; remark: listed apart in the source
[6] = target: T2, Monoamine Oxidase Type-A (MAO-A) (Homo sapiens, UniProt P21397)
T2 sequence (P21397 1-527): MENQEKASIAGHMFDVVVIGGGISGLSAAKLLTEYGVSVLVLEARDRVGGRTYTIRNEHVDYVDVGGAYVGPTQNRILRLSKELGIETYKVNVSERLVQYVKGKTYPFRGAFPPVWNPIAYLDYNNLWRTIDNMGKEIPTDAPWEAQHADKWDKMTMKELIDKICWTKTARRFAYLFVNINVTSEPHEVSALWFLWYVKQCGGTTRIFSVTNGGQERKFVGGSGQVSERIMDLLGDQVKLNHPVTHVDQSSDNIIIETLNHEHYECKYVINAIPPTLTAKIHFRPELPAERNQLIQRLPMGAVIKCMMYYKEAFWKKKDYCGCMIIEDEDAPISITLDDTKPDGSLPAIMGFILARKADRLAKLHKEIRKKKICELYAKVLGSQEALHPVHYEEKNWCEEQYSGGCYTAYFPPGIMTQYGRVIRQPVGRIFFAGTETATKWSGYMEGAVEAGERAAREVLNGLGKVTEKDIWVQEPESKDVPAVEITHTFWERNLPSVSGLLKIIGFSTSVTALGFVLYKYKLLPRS

[7] = in vivo; remark: listed apart in the source
[8] = ingested orally
[9] = test system: MK-801 receptor sites
[10] = target: anandamide (CB1) receptor (Homo sapiens, UniProt P21554)
anandamide (CB1) receptor, sequence (P21554 whole entry, species assumed): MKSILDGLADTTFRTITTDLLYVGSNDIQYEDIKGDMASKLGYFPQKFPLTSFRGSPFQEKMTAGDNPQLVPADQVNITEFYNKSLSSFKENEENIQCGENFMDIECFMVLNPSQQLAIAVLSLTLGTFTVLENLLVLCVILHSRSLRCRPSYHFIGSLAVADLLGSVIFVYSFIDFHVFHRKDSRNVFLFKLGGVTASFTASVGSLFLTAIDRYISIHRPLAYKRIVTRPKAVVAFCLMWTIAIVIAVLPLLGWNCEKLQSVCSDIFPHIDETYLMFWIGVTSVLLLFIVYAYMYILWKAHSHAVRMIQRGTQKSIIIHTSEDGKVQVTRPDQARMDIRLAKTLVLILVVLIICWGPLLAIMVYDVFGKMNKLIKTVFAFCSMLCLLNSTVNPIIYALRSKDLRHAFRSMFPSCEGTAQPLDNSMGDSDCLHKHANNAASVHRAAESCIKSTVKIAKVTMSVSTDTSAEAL

[11] = test system: various different bioreceptor sites; settings: sites commonly effected by most other psychoactive compounds
[12] = mice
[13] = test system: dopamine in the nucleus accumbens; settings: in vivo

Row | Compound | toxicity [1] | minimal dose [2] [mg] | inhibition of MAO-B enzyme [3] | stability of potency [4] | effect on cocaine-produced drug seeking [5] | inhibition of MAO-A enzyme [6] | habit forming / addictiveness [7] | entry into the blood stream [8] | active binding to the MK-801 receptor site [9] | active binding to the anandamide (CB1) receptor site [10] | competitive inhibition of reference target compounds at bioreceptor sites [11] | solubility in acetone | solubility in water and saliva (when still embedded in the leaf) | anxiolytic and anti-depressant findings [12] | release of dopamine in the nucleus accumbens [13] | psychoactive effect / activity [2]
1 | COC(=O)[C@@H]1C[C@H](OC(C)=O)C(=O)[C@H]2[C@@]1(C)CC[C@H]1C(=O)O[C@H](c3ccoc3)C[C@]21C [Salvinorin A] | almost entirely non-toxic; also recorded: ultra low toxicity | 0.2 | does not inhibit | diminish the potency | successful in decreasing the effect of cocaine-produced drug seeking | does not inhibit | non-habit forming and thus non-addictive | doesn't efficiently enter the blood stream | nor has it shown any active binding | nor has it shown any active binding | has not been shown to incur any significant, competitive inhibition | highly soluble | substantially water- and saliva-insoluble | anxiolytic and anti-depressant | does not induce the release of dopamine | 
2 | COC(=O)[C@@H]1C[C@H](O)C(=O)[C@H]2[C@@]1(C)CC[C@H]1C(=O)O[C@H](c3ccoc3)C[C@]21C [Salvinorin “B”] |  |  |  |  |  |  |  |  |  |  |  |  |  |  |  | not known to induce psychoactive effect
